# Source: patent publication US7488577B2, “Method for measuring DNA polymerization and applications of the method” (Cavidi Tech AB, priority 2001, dated 2009)
# Read-outs that look alike come from different tables or passages of the source.
# Assays:
# [1] = tested on: T69S→SS/L210W/T215Y HIV-1 mutant RT; assay: Inhibition of second strand synthesis on variable DNA template, standard reaction solution versus reaction solution with ATP; format: biochemical; settings: 4 pg/well RT, 19 hours
# Description: The procedure for production of recombinant HIV-1 RTs with AZT specific mutations were similar but the mutations were introduced into the RT-coding region from the HXB2-D isolate.
# The DNA polymerase γ and Retro DNA polymerase reaction mixture was reinforced with 3.2 mM ATP and pH was adjusted to 7.1.
# The duration of the polymerization reactions was 19 hours. The RT activities obtained were recalculated into % of the activity of the same RT incubated in absence of inhibitor.
# Symbols: HIV-1 wild type RT in standard DNA polymerase reaction solution (◯). HIV-1 wild type RT in DNA polymerase reaction solution with ATP (●), T69S→SS/L210W/T215Y HIV-1 mutant RT in standard DNA polymerase reaction solution (⋄),
# T69S→SS/L210W/T215Y HIV-1 mutant RT in DNA polymerase reaction solution with ATP(♦).
# [2] = molecular target: T1, recombinant HIV 1 RT wild type (Human immunodeficiency virus type 1 group M subtype B, UniProt P03366); assay: biochemical; design: The mutated and native forms of RT were isolated as previously described; made in house; settings: IC50 on template prA, RT type wt, first strand synthesis, 2 hours
# Description: In short, poly(rA) covalently bound to the wells of a 96 well microtiter plate serves as template for the incorporation of 5-bromodeoxyuridine 5′-triphosphate (BrdUTP) during the reverse transcription step at 33° C. The amount of bromodeoxyuridine monophosphate (BrdUMP) incorporated into DNA, is detected with an alkaline phosphatase (Ap) conjugated anti-BrdU monoclonal antibody. An Ap substrate, 4-methylumbelliferyl phosphate, is finally used for fluorimetric detection.
# (§1) The effects of three non-nucleoside inhibitors on indicated recombinant HIV 1 RT were determined according to “Protocol for determination of inhibition of second strand synthesis on variable DNA template” using DNA polymerase γ and Retro DNA polymerase base buffer and “Protocol for determination of inhibition of reverse transcription ” respectively.
# [3] = molecular target: T1, recombinant HIV 1 RT wild type; assay: biochemical
# Source text: The DNA-polymerase assay is based on a short primer with a specific sequence that is covalently bound to the wells of a 96 well microtiter plate. The reaction mixture contains a single stranded deoxynucleotide template with a part of the sequence complementary to the primer and the four deoxynucleoside triphosphates. Thymidine triphosphate is, however, replaced by 5-bromodeoxyuridine 5′-triphosphate (BrdUTP). The amount of bromodeoxyuridine monophosphate (BrdUMP) incorporated into DNA during the polymerase reaction, is detected with an alkaline phosphatase (Ap) conjugated anti-BrdU monoclonal antibody. An Ap substrate, 4-methylumbelliferyl phosphate, is used for fluorimetric product detection.
# The inhibition studies were performed in a modified DNA polymerase assay. The drugs were serially diluted in five steps and 25 μl aliquots were transferred to each well in the microtiter plate, mixed with 100 μl DNA polymerase reaction mixture and the enzyme reaction was initiated by addition of 25 μl enzyme dilution. […] The polymerase reaction was allowed to proceed over-night (16-24 hours at 33° C.). Thereafter the reaction was terminated by a wash of the plate.
# The polymerase activity at each inhibitor concentration was recalculated into % of the activity of a control in absence of inhibitor. The results are depicted in FIG. 3.
# as §1
# [4] = molecular target: T2, recombinant DNA polymerase III (Staphylococcus aureus, UniProt P0C1P9); assay: Inhibition of DNA polymerase III with TMAU on different templates; format: biochemical; settings: templates (CTGA)6-A12 or (CTG)6-A3; 1.25 ng/well enzyme, one hour, GTP […]
# T2 construct: made in house
# T2 sequence (P0C1P9 1-1435): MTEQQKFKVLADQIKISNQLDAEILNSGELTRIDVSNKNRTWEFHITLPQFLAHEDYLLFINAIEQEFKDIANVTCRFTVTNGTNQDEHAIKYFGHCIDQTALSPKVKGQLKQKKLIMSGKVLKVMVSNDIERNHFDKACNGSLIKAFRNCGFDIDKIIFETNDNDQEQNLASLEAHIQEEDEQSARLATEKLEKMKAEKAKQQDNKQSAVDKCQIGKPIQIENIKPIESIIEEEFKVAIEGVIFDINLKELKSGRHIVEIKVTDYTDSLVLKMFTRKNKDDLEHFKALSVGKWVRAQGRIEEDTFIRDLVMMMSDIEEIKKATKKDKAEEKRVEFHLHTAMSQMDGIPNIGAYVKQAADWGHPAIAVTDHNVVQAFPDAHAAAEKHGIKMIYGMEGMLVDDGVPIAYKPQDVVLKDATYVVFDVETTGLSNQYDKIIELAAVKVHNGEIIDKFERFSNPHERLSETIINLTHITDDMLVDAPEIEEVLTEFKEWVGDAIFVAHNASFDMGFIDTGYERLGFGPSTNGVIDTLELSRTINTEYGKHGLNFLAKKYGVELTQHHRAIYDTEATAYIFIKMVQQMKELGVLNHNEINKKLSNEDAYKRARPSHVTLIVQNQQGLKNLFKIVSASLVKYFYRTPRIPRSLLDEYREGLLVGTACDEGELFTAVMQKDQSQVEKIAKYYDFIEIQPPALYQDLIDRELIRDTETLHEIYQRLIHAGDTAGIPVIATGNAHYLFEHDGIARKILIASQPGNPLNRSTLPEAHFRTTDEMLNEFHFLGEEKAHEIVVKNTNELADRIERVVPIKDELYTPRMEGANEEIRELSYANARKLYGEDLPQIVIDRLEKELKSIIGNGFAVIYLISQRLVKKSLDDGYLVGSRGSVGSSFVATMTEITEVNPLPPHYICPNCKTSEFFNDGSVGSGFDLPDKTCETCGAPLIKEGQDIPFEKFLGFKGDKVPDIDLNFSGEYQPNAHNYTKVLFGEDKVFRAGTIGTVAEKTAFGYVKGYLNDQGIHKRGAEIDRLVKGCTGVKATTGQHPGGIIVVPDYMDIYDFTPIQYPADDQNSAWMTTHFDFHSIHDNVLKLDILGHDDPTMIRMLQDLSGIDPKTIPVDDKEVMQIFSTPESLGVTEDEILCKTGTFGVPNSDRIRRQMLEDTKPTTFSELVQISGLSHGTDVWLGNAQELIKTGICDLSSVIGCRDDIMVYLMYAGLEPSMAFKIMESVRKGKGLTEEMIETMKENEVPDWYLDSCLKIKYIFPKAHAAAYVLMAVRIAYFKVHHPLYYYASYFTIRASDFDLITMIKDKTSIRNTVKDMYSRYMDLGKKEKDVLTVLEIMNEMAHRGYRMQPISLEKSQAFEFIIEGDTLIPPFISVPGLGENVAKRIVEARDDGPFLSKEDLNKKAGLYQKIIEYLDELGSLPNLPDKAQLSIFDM
# Description: DNA polymerase I (E. coli) was purchased from Amersham Bioscience. Recombinant DNA polymerase III from Staphylococus aureus was produced as described (Brown et al 1998). Mammalian DNA polymerase α (calf thymus) and β (human) were purchased from CHIMERx (Milwaukee). DNA polymerase γ was purified from beef heart as described (Pileur et al 2000).
# (2-(N-Morpholino)ethanesulfonic acid) (MES) 40 mM pH 6.8, Potassium acetate (KAc) 40 mM, MgCl2 10 mM, spermine 2 mM, polyoxyethylenesorbitan monolaureate (Tween 20) 0.5%(v/v), EDTA 0.1 mM, dithiothreitol 1 mM and bovine serum albumin (BSA) 50 μg/ml.
# 6-anilinouracils are selective inhibitors of DNA polymerase III from gram-positive bacteria. […] The drug TMAU can be regarded as an analogue to […]. […]
smiles,measurement,setting,value
C[C@@H](Cn1cnc2c(N)ncnc21)OCP(=O)(O)OP(=O)(O)OP(=O)(O)O,Increase of the difference in drug susceptibility between wild type and mutant RT,[1],approximately 10 fold
O=C(O)P(=O)(O)O [Foscarnet],IC50,[2]; RT amount 20 fg,600 nM
same,IC50,[2]; RT amount 100 fg,700 nM
same,IC50,[3],500 nM
"O=c1cc(Nc2ccc3c(c2)CCC3)[nH]c(=O)[nH]1 [TMAU, 6-([3,4-trimethylene]anilino)uracil]",Inhibitory capacity towards DNA polymerase III,[4],varying inhibitory capacity depending on the sequence of the template used
"Nc1ncnc2c1ncn2C1CCC(COP(=O)(O)OP(=O)(O)OP(=O)(O)O)O1 (stereo not shown) [ddATP, 2′3′ dideoxyadenosine triphosphate]",IC50,[3],80 nM
"Nc1ccn(C2CCC(COP(=O)(O)OP(=O)(O)OP(=O)(O)O)O2)c(=O)n1 (stereo not shown) [ddCTP, 2′3′ dideoxy cytidine triphosphate]",IC50,[3],20 nM
